Tests used:
[1] = FITC fluorescence; no reference given; cited from earlier work
Description: Figure 4A,B were nearly identical to the images obtained at 2 h in Figure 3A,B, respectively. […] There was no signi ...

HeLa cells = test: Peptide uptake in HeLa cells; assay type: cell-based; conditions: unlike HT-1080 cells
[2] = system: HT-1080 cells (MMP2-positive); test: Live cell confocal imaging of peptide uptake in HT-1080 cells; assay type: cell-based, Human; conditions: for intracellular fluorescence (confocal images, FITC channel): HT-1080, peptide final 10 μM in serum-free CM, 2 h after treatment
Description: (§1) For live cell imaging, HT-1080 or HT-29 cells were cultured in Lab-Tek II chambered coverglass (Thermo Fisher Scientific) containers in RPMI-1640 media containing 10% FBS and 1× P/S at 37 °C. When the cells were 80% confluent, the culture medium was rinsed and changed to a fresh serum-free medium, followed by the addition of peptide probes at a final concentration of 10 μM. For organelle images, nuclei and lysosomes (or late endosomes) were stained with NucBlue (1 drop) and Lysotracker Red (50 nM) in serum-free media, respectively, and incubated in the dark for 10 min. After washing of the cells and removal of the chamber, cells adhering to the coverglass were subjected to bright-field or fluorescent images using a confocal microscope (Nikon C2si+, Japan). The excitation/emission wavelengths of NucBlue, FITC, and Lysotracker Red were 352/454 nm, 488/525 nm, and 577/590 nm, respectively. Typically, images were collected using a pixel dwell time of 10.3 μs on a 512 × 512 pixel image with 1 mW light power at the objective through a pinhole (60 μm) to reach the PMT. The frame rate was rather slow; the frame rate was about 0.255 FPS (frame per second) for a 512 × 512 frame (i.e., 1 frame per 3.9 s). To gain time-lapse images for FITC in living cells, one video file was constructed with images taken every 20 s for 30 min. Imaging analysis was performed using the NIS-Elements microscope imaging software (Ver 2.0).

active MMP2 = target: T1, active MMP2 (Homo sapiens, UniProt P08253); test: Fluorescent gel electrophoresis of peptide cleavage by active MMP2; assay type: biochemical; conditions: peptide final 50 μM, active MMP2 final 0.1 μg in 40 μL; 20 mM Tris-HCl, 5 mM CaCl2, 100 mM NaCl, pH 7.6; 120 min, 37 °C; 0.8% agarose gel, FITC fluorescence
T1 construct: active MMP2 (No. PF023), and active MMP9 (No. PF024) were purchased from Merck Millipore; purchased Merck Millipore PF023
T1 sequence (P08253 110-660): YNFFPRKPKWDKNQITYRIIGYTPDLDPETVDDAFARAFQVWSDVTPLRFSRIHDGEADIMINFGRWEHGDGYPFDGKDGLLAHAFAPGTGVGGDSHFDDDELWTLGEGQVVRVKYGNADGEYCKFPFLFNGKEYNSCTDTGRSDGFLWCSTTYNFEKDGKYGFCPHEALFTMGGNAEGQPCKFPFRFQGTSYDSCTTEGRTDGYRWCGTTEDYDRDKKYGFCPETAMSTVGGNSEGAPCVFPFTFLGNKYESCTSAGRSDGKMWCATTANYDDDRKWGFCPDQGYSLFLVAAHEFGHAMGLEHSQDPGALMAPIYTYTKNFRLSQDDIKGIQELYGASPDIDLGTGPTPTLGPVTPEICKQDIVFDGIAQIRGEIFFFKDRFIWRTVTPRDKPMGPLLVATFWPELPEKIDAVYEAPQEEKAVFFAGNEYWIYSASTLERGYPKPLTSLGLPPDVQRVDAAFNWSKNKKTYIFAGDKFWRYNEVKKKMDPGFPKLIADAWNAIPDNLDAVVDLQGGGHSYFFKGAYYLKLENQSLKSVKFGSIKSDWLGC
Description: (§2) Fluorescent gel electrophoresis was performed on 0.8% agarose gel at 50 V for 60 min. The agarose gel was cast and run using 0.5 × TB buffer. For the protease assay, Pep1 or Pep2 (1 μL at 2 mM, final 50 μM) was mixed with active MMP2 or active MMP9 (1 μL, final 0.1 μg) at a final volume of 40 μL in standard reaction buffer (20 mM Tris-HCl containing 5 mM CaCl2 and 100 mM NaCl, pH 7.6). The reactants were incubated in a tube for 120 min at 37 °C to induce the enzyme reaction, and 30 μL of the solution were loaded onto the agarose gel. As a control, a solution of Pep1 or Pep 2 (1 μL at 2 mM) without enzymes was resuspended in a reaction buffer (for a total of 40 μL), and the aliquot (30 μL) was used in gel electrophoresis. The fluorescent image of the agarose was captured using a home-built transilluminator equipped with a blue light-emitting diode lamp. The original image underwent a pseudo-color imaging process using an image-editing function in Microsoft PowerPoint 365.

[3] = system: HT-29 cells (MMP2-negative); test: Live cell confocal imaging of peptide uptake in HT-29 cells; assay type: cell-based, Human
Description: as §1, with “Imaging analysis was performed using the NIS-Elements microscope imaging software (Ver 2.0).” left out

active MMP9 = target: T2, active MMP9 (Homo sapiens, UniProt P14780); test: Fluorescent gel electrophoresis of peptide cleavage by active MMP9; assay type: biochemical; conditions: peptide final 50 μM, active MMP9 final 0.1 μg in 40 μL; 20 mM Tris-HCl, 5 mM CaCl2, 100 mM NaCl, pH 7.6; 120 min, 37 °C; 0.8% agarose gel, FITC fluorescence
T2 construct: active MMP2 (No. PF023), and active MMP9 (No. PF024) were purchased from Merck Millipore; purchased Merck Millipore PF024
T2 sequence (P14780 107-707 limits assumed): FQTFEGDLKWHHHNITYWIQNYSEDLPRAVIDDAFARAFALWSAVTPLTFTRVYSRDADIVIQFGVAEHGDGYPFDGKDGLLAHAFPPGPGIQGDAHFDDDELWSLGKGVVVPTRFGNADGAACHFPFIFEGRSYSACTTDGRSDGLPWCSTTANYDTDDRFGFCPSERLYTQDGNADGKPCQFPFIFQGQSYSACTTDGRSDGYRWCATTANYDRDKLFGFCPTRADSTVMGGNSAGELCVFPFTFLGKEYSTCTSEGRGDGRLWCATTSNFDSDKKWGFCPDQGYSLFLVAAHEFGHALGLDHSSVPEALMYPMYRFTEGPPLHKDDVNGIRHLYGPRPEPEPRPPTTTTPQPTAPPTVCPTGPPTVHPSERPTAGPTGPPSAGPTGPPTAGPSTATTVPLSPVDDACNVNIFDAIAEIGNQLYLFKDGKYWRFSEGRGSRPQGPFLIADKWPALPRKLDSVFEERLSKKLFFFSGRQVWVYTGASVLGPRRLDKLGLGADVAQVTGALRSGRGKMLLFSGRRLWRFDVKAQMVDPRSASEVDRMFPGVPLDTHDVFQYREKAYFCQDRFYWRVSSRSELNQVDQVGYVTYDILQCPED
Description: as §2

[4] = target: T3, MMP2 secreted by HT-1080 cells (Homo sapiens, UniProt P08253); test: Pep1 intracellular fluorescence in HT-1080 cells with MMP2 inhibitor; assay type: cell-based; conditions: HT-1080, Pep1 final 10 μM, MMP2 inhibitor (Figure S3)
T3 construct: endogenous in cells; host or cells: HT-1080 human fibrosarcoma cells
T3 sequence (P08253 110-660): T1 sequence (P08253 110-660)
Description: as §1, with “Imaging analysis was performed using the NIS-Elements microscope imaging software (Ver 2.0).” left out

Molecule | uptake by HeLa cells (HeLa cells) | intracellular fluorescence (confocal images, FITC channel) ([2]; 37 °C) | cleavage by active MMP2 (fluorescent band shift on agarose gel) (active MMP2) | cleavage by active MMP9 (fluorescent band shift on agarose gel) (active MMP9) | other results
fluorescein isothiocyanate [FITC] | – | – | – | – | pKa [1]: 6.5
GGIPVSLRSGGGRRRRK-FITC [Pep3, FITC-labeled positive control peptide without E4] | did not take up | strong fluorescence images | – | – | –
EEEEGGIPVSLRSGGGRRRRK-FITC [Pep1] | – | strong fluorescence images | strong fluorescent band shift | less effective than that by MMP2 | intracellular fluorescence (confocal images, FITC channel) ([3]; HT-29, peptide final 10 μM in serum-free CM, 2 h after treatment, 37 °C): No significant fluorescence images; time-lapse fluorescence (30 min) ([3]; living HT-29, Pep1 final 10 μM, 30 min): no significant increase; cellular uptake ([2]; HT-1080 cells, 30 min, percentage of FITC-stained cells over total cells): 40~60%; time-lapse signal intensity (0 to 30 min) ([2]; living HT-1080, peptide final 10 μM, 37 °C, compared to Pep2, triplicate experiments): increased even after just 5 min
O=C(O)[C@@H](Cc1ccccc1)NS(=O)(=O)c1ccc(-c2ccccc2)cc1 [MMP2 inhibitor, (2R)-2-[(4-biphenylylsulfonyl)amino]-3-phenylpropionic acid] | – | – | – | – | effect on intracellular fluorescence intensity of Pep1 [4]: significantly reduced
EEEEGGRRRRK-FITC [Pep2] | – | No significant fluorescence images | did not show any fluorescent band shifts | did not show any fluorescent band shifts | –
LRSGGG-R4-FITC [cleaved Pep1, fluorescent fragment of Pep1 after MMP2 cleavage] | did not take up | – | – | – | –
